In patent US9617253B2, “Molecules having pesticidal utility, and intermediates, compositions, and processes, related thereto” (Dow AgroSciences LLC, priority 2015, dated 2017):

Columns and labels:
[1] = test system: Beet Armyworm (Spodoptera exigua, LAPHEG); assay: Bioassay on Beet Armyworm (BAW), 128-well diet tray assay; type: in vivo; settings: 168 h, second instar BAW larvae, 50 μg/cm^2 on artificial diet, 25° C., five to seven days, average of eight wells, read-out: BAW % Control (or Mortality) rating
Method: (§1) Certain molecules disclosed in this document were tested against BAW and CL using procedures described in the following examples. In the reporting of the results, the “BAW & CL Rating Table” was used (See Table Section).
Bioassays on BAW were conducted using a 128-well diet tray assay. One to five second instar BAW larvae were placed in each well (3 mL) of the diet tray that had been previously filled with 1 mL of artificial diet to which 50 μg/cm^2 of the test molecule (dissolved in 50 μL of 90:10 acetone-water mixture) had been applied (to each of eight wells) and then allowed to dry. Trays were covered with a clear self-adhesive cover, vented to allow gas exchange, and held at 25° C., 14:10 light-dark for five to seven days. Percent mortality was recorded for the larvae in each well; activity in the eight wells was then averaged. The results are indicated in the table entitled “Table ABC: Biological Results” (See Table Section).

[2] = test system: Cabbage Looper (Trichoplusia ni, TRIPNI); assay: Bioassay on Cabbage Looper (CL), 128-well diet tray assay; type: in vivo; settings: 168 h, second instar CL larvae, 50 μg/cm^2 on artificial diet, 25° C., five to seven days, average of eight wells, read-out: CL % Control (or Mortality) rating
Method: as §1
Bioassays on CL were conducted using a 128-well diet tray assay. One to five second instar CL larvae were placed in each well (3 mL) of the diet tray that had been previously filled with 1 mL of artificial diet to which 50 μg/cm^2 of the test molecule (dissolved in 50 μL of 90:10 acetone-water mixture) had been applied (to each of eight wells) and then allowed to dry. Trays were covered with a clear self-adhesive cover, vented to allow gas exchange, and held at 25° C., 14:10 light-dark for five to seven days. Percent mortality was recorded for the larvae in each well; activity in the eight wells was then averaged. The results are indicated in the table entitled “Table ABC: Biological Results” (See Table Section).

Row | melting point | SMILES | mortality at 50 µg/cm2 [1] | mortality at 50 µg/cm2 [2]
1 | 147 to 152 °C | COC(C)c1ccc(C)cc1N1C(=O)CS/C1=N\C(=O)Nc1c(F)cc(OCc2ncn(-c3ccc(OC(F)(F)F)cc3)n2)cc1F (stereo not shown) |  | 
2 | 165 to 167 °C | COCc1ccc(C)cc1N1C(=O)CS/C1=N\C(=O)Nc1ccc(OCc2ncn(-c3ccc(OC(F)(F)F)cc3)n2)cc1 |  | 
3 | 132 to 134 °C | COCc1ccc(C)cc1N1C(=O)CS/C1=N\C(=O)Nc1ccc(OCc2ncn(-c3ccc(OC(F)(F)F)cc3)n2)cc1F |  | 
4 | 169 to 172 °C | CCCc1ccc(C)cc1N1C(=O)CS/C1=N\C(=O)Nc1c(F)cc(OCc2ncn(-c3ccc(OC(F)(F)F)cc3)n2)cc1F |  | 
5 | 148 to 150 °C | COCc1ccc(C)cc1N1C(=O)CS/C1=N\C(=O)Nc1ccc(OCc2ncn(-c3ccc(OC(F)(F)F)cc3)n2)cc1Cl |  | 
6 |  | Cc1ccc(C(C)C)c(N2C(=O)CS/C2=N\C(=O)Nc2ccc(OCc3ncn(-c4ccc(OC(F)(F)F)cc4)n3)cc2Cl)c1 [F29, (Z)-1-(2-Chloro-4-((1-(4-(trifluoromethoxy)phenyl)-1H-1,2,4-triazol-3-yl)methoxy)phenyl)-3-(3-(2-isopropyl-5-methylphenyl)-4-oxothiazolidin-2-ylidene)urea] | 50 to 100% | 50 to 100%
7 |  | CCCc1ccc(C)cc1N1C(=O)CS/C1=N\C(=O)Nc1ccc(OCc2ncn(-c3ccc(OC(F)(F)F)cc3)n2)cc1Cl [F30, (Z)-1-(2-Chloro-4-((1-(4-(trifluoromethoxy)phenyl)-1H-1,2,4-triazol-3-yl)methoxy)phenyl)-3-(3-(5-methyl-2-propylphenyl)-4-oxothiazolidin-2-ylidene)urea] | 50 to 100% | 50 to 100%
8 |  | COc1cc(OCc2ncn(-c3ccc(OC(F)(F)F)cc3)n2)ccc1NC(=O)/N=C1\SCC(=O)N1c1cc(C)ccc1C(C)C [F32, (Z)-1-(3-(2-Isopropyl-5-methylphenyl)-4-oxothiazolidin-2-ylidene)-3-(2-methoxy-4-((1-(4-(trifluoromethoxy)phenyl)-1H-1,2,4-triazol-3-yl)methoxy)phenyl)urea] | 50 to 100% | 50 to 100%
9 |  | CCCc1ccc(C)cc1N1C(=O)CS/C1=N\C(=O)Nc1ccc(OCc2ncn(-c3ccc(OC(F)(F)F)cc3)n2)cc1OC [F33, (Z)-1-(2-Methoxy-4-((1-(4-(trifluoromethoxy)phenyl)-1H-1,2,4-triazol-3-yl)methoxy)phenyl)-3-(3-(5-methyl-2-propylphenyl)-4-oxothiazolidin-2-ylidene)urea] | 50 to 100% | 50 to 100%
10 |  | COCc1ccc(C)cc1N1C(=O)CS/C1=N\C(=O)Nc1ccc(OCc2ncn(-c3ccc(OC(F)(F)F)cc3)n2)cc1OC [F34, (Z)-1-(2-Methoxy-4-((1-(4-(trifluoromethoxy)phenyl)-1H-1,2,4-triazol-3-yl)methoxy)phenyl)-3-(3-(2-(methoxymethyl)-5-methylphenyl)-4-oxothiazolidin-2-ylidene)urea] | 50 to 100% | 50 to 100%
11 |  | Cc1ccc(C(C)C)c(N2C(=O)CS/C2=N\C(=O)Nc2ccc(OCc3ncn(-c4ccc(OC(F)(F)F)cc4)n3)c(F)c2)c1 [F35, (Z)-1-(3-Fluoro-4-((1-(4-(trifluoromethoxy)phenyl)-1H-1,2,4-triazol-3-yl)methoxy)phenyl)-3-(3-(2-isopropyl-5-methylphenyl)-4-oxothiazolidin-2-ylidene)urea] | 50 to 100% | 50 to 100%
12 |  | CCCc1ccc(C)cc1N1C(=O)CS/C1=N\C(=O)Nc1ccc(OCc2ncn(-c3ccc(OC(F)(F)F)cc3)n2)c(F)c1 [F36, (Z)-1-(3-Fluoro-4-((1-(4-(trifluoromethoxy)phenyl)-1H-1,2,4-triazol-3-yl)methoxy)phenyl)-3-(3-(5-methyl-2-propylphenyl)-4-oxothiazolidin-2-ylidene)urea] | 50 to 100% | 50 to 100%
13 |  | COCc1ccc(C)cc1N1C(=O)CS/C1=N\C(=O)Nc1ccc(OCc2ncn(-c3ccc(OC(F)(F)F)cc3)n2)c(F)c1 [F37, (Z)-1-(3-Fluoro-4-((1-(4-(trifluoromethoxy)phenyl)-1H-1,2,4-triazol-3-yl)methoxy)phenyl)-3-(3-(2-(methoxymethyl)-5-methylphenyl)-4-oxothiazolidin-2-ylidene)urea] | 50 to 100% | 50 to 100%
14 |  | Cc1ccc(C(C)C)c(N2C(=O)CS/C2=N\C(=O)Nc2ccc(OCc3ncn(-c4ccc(OC(F)(F)F)cc4)n3)c(Cl)c2)c1 [F38, (Z)-1-(3-Chloro-4-((1-(4-(trifluoromethoxy)phenyl)-1H-1,2,4-triazol-3-yl)methoxy)phenyl)-3-(3-(2-isopropyl-5-methylphenyl)-4-oxothiazolidin-2-ylidene)urea] | 50 to 100% | 50 to 100%
15 |  | CCCc1ccc(C)cc1N1C(=O)CS/C1=N\C(=O)Nc1ccc(OCc2ncn(-c3ccc(OC(F)(F)F)cc3)n2)c(Cl)c1 [F39, (Z)-1-(3-Chloro-4-((1-(4-(trifluoromethoxy)phenyl)-1H-1,2,4-triazol-3-yl)methoxy)phenyl)-3-(3-(5-methyl-2-propylphenyl)-4-oxothiazolidin-2-ylidene)urea] | 50 to 100% | 50 to 100%
16 |  | COCc1ccc(C)cc1N1C(=O)CS/C1=N\C(=O)Nc1ccc(OCc2ncn(-c3ccc(OC(F)(F)F)cc3)n2)c(Cl)c1 [F40, (Z)-1-(3-Chloro-4-((1-(4-(trifluoromethoxy)phenyl)-1H-1,2,4-triazol-3-yl)methoxy)phenyl)-3-(3-(2-(methoxymethyl)-5-methylphenyl)-4-oxothiazolidin-2-ylidene)urea] | 50 to 100% | 50 to 100%
17 |  | CCCc1ccc(C)cc1N1C(=O)CS/C1=N\C(=O)Nc1cc(F)c(OCc2ncn(-c3ccc(OC(F)(F)F)cc3)n2)c(F)c1 [F42, (Z)-1-(3,5-Difluoro-4-((1-(4-(trifluoromethoxy)phenyl)-1H-1,2,4-triazol-3-yl)methoxy)phenyl)-3-(3-(5-methyl-2-propylphenyl)-4-oxothiazolidin-2-ylidene)urea] | 50 to 100% | 50 to 100%
18 |  | COCc1ccc(C)cc1N1C(=O)CS/C1=N\C(=O)Nc1cc(F)c(OCc2ncn(-c3ccc(OC(F)(F)F)cc3)n2)c(F)c1 [F43, (Z)-1-(3,5-Difluoro-4-((1-(4-(trifluoromethoxy)phenyl)-1H-1,2,4-triazol-3-yl)methoxy)phenyl)-3-(3-(2-(methoxymethyl)-5-methylphenyl)-4-oxothiazolidin-2-ylidene)urea] | 50 to 100% | 50 to 100%
19 |  | Cc1ccc(C(C)C)c(N2C(=O)CS/C2=N\C(=O)Nc2ccc(OCc3ncn(-c4ccc(OC(F)(F)F)cc4)n3)nc2)c1 [F44, (Z)-1-(3-(2-Isopropyl-5-methylphenyl)-4-oxothiazolidin-2-ylidene)-3-(6-((1-(4-(trifluoromethoxy)phenyl)-1H-1,2,4-triazol-3-yl)methoxy)pyridin-3-yl)urea] | 50 to 100% | 50 to 100%
20 |  | CCCc1ccc(C)cc1N1C(=O)CS/C1=N\C(=O)Nc1ccc(OCc2ncn(-c3ccc(OC(F)(F)F)cc3)n2)nc1 [F45, (Z)-1-(3-(5-Methyl-2-propylphenyl)-4-oxothiazolidin-2-ylidene)-3-(6-((1-(4-(trifluoromethoxy)phenyl)-1H-1,2,4-triazol-3-yl)methoxy)pyridin-3-yl)urea] | 0 to 50% | 0%
21 |  | COCc1ccc(C)cc1N1C(=O)CS/C1=N\C(=O)Nc1ccc(OCc2ncn(-c3ccc(OC(F)(F)F)cc3)n2)nc1 [F46, (Z)-1-(3-(2-(Methoxymethyl)-5-methylphenyl)-4-oxothiazolidin-2-ylidene)-3-(6-((1-(4-(trifluoromethoxy)phenyl)-1H-1,2,4-triazol-3-yl)methoxy)pyridin-3-yl)urea] | 0 to 50% | 0%
